This assay has as its target T1, NLRP3 inflammasome (Homo sapiens, UniProt Q96P20).
T1 construct: host or cells: THP-1 human monocytic cells, PMA-treated, stimulated with gramicidin
Briefly: ASC-SPECK formation in THP-1 cells after gramicidin stimulation (NLRP3 inflammasome activation). It counts as cell-based. As to conditions: PMA-treated human monocytic THP-1 cells, compound 1 h before 12.5 ug/ml gramicidin, 3 h, ASC SPECK imaging; read-out: EC50 (nM) for Examples that inhibit NLRP3 inflammasome activation. The protocol:
The ability of compounds to inhibit NLRP3 inflammasome activation was determined in vitro by monitoring formation of the ASC-SPECK in human monocytic THP-1 cells after stimulation. THP-1 cells (ATCC catalog #TIB-202) were maintained in complete growth media containing Roswell Park Memorial Institute RPMI (ATCC catalog #30-2001), 10% heat inactivated fetal bovine serum, 1× penicillin/streptomycin and 0.05 mM 2-mercaptoethanol. At the start of the assay, undifferentiated THP-1 cells were plated at a density of 20,000 cells per well in a 384-well plate (Poly-D-lysine coated Cell Carrier Ultra microplate, Perkin Elmer catalog #6057500) in complete growth media supplemented with 10 ng/ml phorbol 12-myristate 13-acetate (PMA; Sigma catalog #P8139), and then incubated overnight. The next day, media was replaced with assay media [RPMI (Gibco catalog #11875-093), 0.01% bovine serum albumin (BSA)]. Compounds were serially diluted in DMSO and then added to wells one hour prior to the addition of 12.5 ug/ml Gramicidin (Enzo Lifescience, catalog #ALX-350-233-M005). All incubations were carried out at 37° C. (5% CO2/95% air). Following a 3-hour treatment with gramicidin, cells are fixed with 4% paraformaldehyde and stored at 4° C. until immunofluorescence staining.
Immunofluorescence staining: Anti-ASC antibody (MBL catalog #D086-3) was desalted and labeled with Alexa 488 antibody labeling kit (Thermo catalog #A20181) prior to use as described below. After fixation, the following steps were carried out at room temperature. Cells were first permeabilized with 0.3% Triton X-100 in phosphate-buffered saline (PBS) for 15 minutes and then incubated in blocking buffer containing 5% goat serum, 0.3% tween-20 and 0.03% sodium azide in PBS for 1 hour. Cells were stained with a mixture of ASC-Alexa 488 antibody (diluted 1:200 in blocking buffer) and nuclear stain DRAQ5 (1:5000 in blocking buffer, Thermo catalog #62251) in blocking buffer for 1 hour. Following a wash with 0.3% Tween-20 in PBS, plates were imaged with an Opera Phenix High Content Screening System. The number of DRAQ5 positive cells containing ASC SPECKS were quantified in each well.
Data analysis: EC50 values were calculated by standard curve-fitting analysis using an internally developed program in TIBCO Spotfire software.
T1 sequence (Q96P20 whole entry): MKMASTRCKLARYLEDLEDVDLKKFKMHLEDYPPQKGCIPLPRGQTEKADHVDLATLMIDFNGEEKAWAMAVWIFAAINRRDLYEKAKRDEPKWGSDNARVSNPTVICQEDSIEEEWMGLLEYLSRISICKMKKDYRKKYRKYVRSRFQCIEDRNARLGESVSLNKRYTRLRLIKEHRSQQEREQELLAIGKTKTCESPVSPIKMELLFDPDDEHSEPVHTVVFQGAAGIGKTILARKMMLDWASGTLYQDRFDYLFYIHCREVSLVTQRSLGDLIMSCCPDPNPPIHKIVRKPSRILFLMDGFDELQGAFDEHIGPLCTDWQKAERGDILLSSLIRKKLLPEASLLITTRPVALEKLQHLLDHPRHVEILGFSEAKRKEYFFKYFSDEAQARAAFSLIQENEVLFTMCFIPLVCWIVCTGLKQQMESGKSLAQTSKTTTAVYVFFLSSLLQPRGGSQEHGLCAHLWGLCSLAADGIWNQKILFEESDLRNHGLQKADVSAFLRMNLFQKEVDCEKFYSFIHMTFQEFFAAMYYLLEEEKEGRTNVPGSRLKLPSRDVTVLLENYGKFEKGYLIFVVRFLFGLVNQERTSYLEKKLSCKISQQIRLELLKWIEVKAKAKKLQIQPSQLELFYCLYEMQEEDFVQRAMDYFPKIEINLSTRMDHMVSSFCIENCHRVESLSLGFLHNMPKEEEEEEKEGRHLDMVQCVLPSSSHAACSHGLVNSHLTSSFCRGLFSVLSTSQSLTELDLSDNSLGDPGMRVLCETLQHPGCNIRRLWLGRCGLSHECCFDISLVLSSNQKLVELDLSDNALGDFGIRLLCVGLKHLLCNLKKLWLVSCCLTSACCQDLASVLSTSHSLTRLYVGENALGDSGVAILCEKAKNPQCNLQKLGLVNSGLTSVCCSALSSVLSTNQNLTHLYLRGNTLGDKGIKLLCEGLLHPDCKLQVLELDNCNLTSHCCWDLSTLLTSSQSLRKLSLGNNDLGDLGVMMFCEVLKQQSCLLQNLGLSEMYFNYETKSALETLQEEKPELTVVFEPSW
Consider `C[C@@H]1CN(c2nnc(-c3ccc(C(F)(F)F)cc3O)c3ccncc23)C[C@H](C)[C@]1(C)O` (single isomer, unassigned) [Example 16], for which the concentration giving a half-maximal response (EC50) (as a rule, the concentration needed to bring the measured effect to its halfway point) was found to be 70 nM.
For the compound `C[C@@H]1CN(c2nnc(-c3ccc(C(F)(F)F)cc3O)c3cnccc23)C[C@H](C)O1` [Example 5, 2-(1-((cis)-2,6-dimethylmorpholino)pyrido[3,4-d]pyridazin-4-yl)-5-(trifluoromethyl)phenol], the EC50 was determined as 556 nM.
With `C[C@@H]1CN(c2nnc(-c3ccc(C(F)(F)F)cc3O)c3cccnc23)C[C@H](C)S1(=O)=O` [Example 26, (cis)-4-(5-(2-hydroxy-4-(trifluoromethyl)phenyl)pyrido [2,3-d]pyridazin-8-yl)-2,6-dimethylthiomorpholine 1,1-dioxide], the EC50 came out at 96 nM.
Next, `O=C1CCC2(CCN(c3nnc(-c4ccc(C(F)(F)F)cc4O)c4cccnc34)CC2)O1` [Example 42, 8-(5-(2-hydroxy-4-(trifluoromethyl)phenyl)pyrido [2,3-d]pyridazin-8-yl)-1-oxa-8-azaspiro[4.5]decan-2-one]: 952 nM.
Turning to `C[C@@H]1C[C@@](O)(c2nnc(-c3ccc(C(F)(F)F)cc3O)c3cccnc23)C[C@H](C)O1` [Example 55, (2R,4r,6S)-4-(5-(2-hydroxy-4-(trifluoromethyl)phenyl)pyrido[2,3-d]-pyridazin-8-yl)-2,6-dimethyltetrahydro-2H-pyran-4-ol], the half-maximal effective concentration (EC50) was 1340 nM.
`C[C@@H]1CN(c2nnc(-c3ccc(C(F)(F)F)cc3O)c3cccnc23)C[C@H](C)[C@]1(C)O` [Example 24, (3S,4s,5R)-1-(5-(2-hydroxy-4-(trifluoromethyl)phenyl)pyrido [2,3-d]pyridazin-8-yl)-3,4,5-trimethylpiperidin-4-ol]: the EC50 stood at 52 nM.
Next, `Cc1ccc2c(-c3ccc(C(F)(F)F)cc3O)nnc(N3C[C@@H](C)O[C@@H](C)C3)c2c1` (single isomer, unassigned) [Example 20, 2-(4-((cis)-2,6-dimethylmorpholino)-6-methylphthalazin-1-yl)-5-(trifluoromethyl)phenol]: 33 nM; `CC(C)(O)[C@@H]1CCN(c2nnc(-c3ccc(C(F)(F)F)cc3O)c3cccnc23)C1` [Example 49, (R)-2-(8-(3-(2-hydroxypropan-2-yl)pyrrolidin-1-yl)pyrido[2,3-d]pyridazin-5-yl)-5-(trifluoromethyl)phenol]: 1790 nM.
Next, `C[C@@H]1CN(c2nnc(-c3ccc(C(F)(F)F)cc3O)c3cnccc23)C[C@H](C)[C@H]1O` [Example 19, (3S,4r,5R)-1-(4-(2-hydroxy-4-(trifluoromethyl)phenyl)pyrido[3,4-d]pyridazin-1-yl)-3,5-dimethylpiperidin-4-ol]: 68 nM.
The same measure for `C[C@]1(O)CCN(c2nnc(-c3ccc(C(F)(F)F)cc3O)c3cccnc23)C1` [Example 22, (S)-1-(5-(2-hydroxy-4-(trifluoromethyl)phenyl)pyrido[2,3-d]-pyridazin-8-yl)-3-methylpyrrolidin-3-ol]: 124 nM; for `Cc1cccc2c(N3C[C@@H](C)O[C@@H](C)C3)nnc(-c3ccc(C(F)(F)F)cc3O)c12` [Example 15, 2-(4-((cis)-2,6-dimethylmorpholino)-8-methylphthalazin-1-yl)-5-(trifluoromethyl)phenol]: 3680 nM.
Turning to `CC(C)(O)[C@H]1CCN(c2nnc(-c3ccc(C(F)(F)F)cc3O)c3cccnc23)C1` [Example 50, (S)-2-(8-(3-(2-hydroxypropan-2-yl)pyrrolidin-1-yl)pyrido[2,3-d]pyridazin-5-yl)-5-(trifluoromethyl)phenol], the EC50 stood at 1330 nM.
`C[C@@H]1CN(c2nnc(-c3ccc(C(F)(F)F)cc3O)c3ccncc23)C[C@H](C)[C@H]1O` (single isomer, unassigned) [Example 18]: the EC50 was determined as 23 nM.
For `Oc1cc(C(F)(F)F)ccc1-c1nnc(N2CCC3(CCCO3)CC2)c2ncccc12` [Example 30, 2-(8-(1-oxa-8-azaspiro[4.5]decan-8-yl)pyrido[2,3-d]pyridazin-5-yl)-5-(trifluoromethyl)phenol], the EC50 worked out at 1270 nM.
In the case of `C[C@@H]1CN(c2nnc(-c3ccc(C(F)(F)F)cc3OC(F)F)c3cccnc23)C[C@H](C)O1` [Example 3, (cis)-4-(5-(2-(difluoromethoxy)-4-(trifluoromethyl)phenyl)pyrido[2,3-d]pyridazin-8-yl)-2,6-dimethylmorpholine], the half-maximal effective concentration (EC50) is 891 nM.
The same measure for `C[C@@H]1C[C@](O)(c2nnc(-c3ccc(C(F)(F)F)cc3O)c3cccnc23)C[C@H](C)O1` [Example 54, (2R,4s,6S)-4-(5-(2-hydroxy-4-(trifluoromethyl)phenyl)pyrido[2,3-d]-pyridazin-8-yl)-2,6-dimethyltetrahydro-2H-pyran-4-ol]: 1100 nM; for `Cc1cccc2c(-c3ccc(C(F)(F)F)cc3O)nnc(N3C[C@@H](C)O[C@@H](C)C3)c12` [Example 14, 2-(4-((cis)-2,6-dimethylmorpholino)-5-methylphthalazin-1-yl)-5-(trifluoromethyl)phenol]: 734 nM; for `C[C@@H]1CN(c2nnc(-c3ccc(C(F)(F)F)cc3O)c3ncccc23)C[C@H](C)O1` [Example 6, 2-(5-((cis)-2,6-dimethylmorpholino)pyrido[2,3-d]pyridazin-8-yl)-5-(trifluoromethyl)phenol]: 1850 nM.
The same measure for `CN1C(=O)CCC12CCN(c1nnc(-c3ccc(C(F)(F)F)cc3O)c3cccnc13)CC2` [Example 39, 8-(5-(2-hydroxy-4-(trifluoromethyl)phenyl)pyrido [2,3-d]pyridazin-8-yl)-1-methyl-1,8-diazaspiro[4.5]decan-2-one]: 563 nM.
The same measure for `C[C@@H]1CN(c2nnc(-c3ccc(C(F)(F)F)cc3OC(F)F)c3ccncc23)C[C@H](C)O1` [Example 7, (cis)-4-(1-(2-(difluoromethoxy)-4-(trifluoromethyl)phenyl)pyrido[3,4-d]pyridazin-4-yl)-2,6-dimethylmorpholine]: 570 nM; for `Oc1cc(C(F)(F)F)ccc1-c1nnc(N2CC(O)C(F)(F)C2)c2ncccc12` (racemic) [Example 43, (R and S)-4,4-difluoro-1-(5-(2-hydroxy-4-(trifluoromethyl)phenyl)pyrido [2,3-d]pyridazin-8-yl)pyrrolidin-3-ol]: 482 nM.
With `CC(=O)N1CCC2(CCN(c3nnc(-c4ccc(C(F)(F)F)cc4O)c4cccnc34)CC2)C1` [Example 35, 1-(8-(5-(2-hydroxy-4-(trifluoromethyl)phenyl)pyrido [2,3-d]pyridazin-8-yl)-2,8-diazaspiro[4.5]decan-2-yl)ethan-1-one], the concentration giving a half-maximal response (EC50) was 420 nM.
The same measure for `O=C1NCC2(CCN(c3nnc(-c4ccc(C(F)(F)F)cc4O)c4cccnc34)CC2)O1` [Example 40, 8-(5-(2-hydroxy-4-(trifluoromethyl)phenyl)pyrido [2,3-d]pyridazin-8-yl)-1-oxa-3,8-diazaspiro[4.5]decan-2-one]: 304 nM; for `C[C@@H]1CN(c2nnc(-c3ccc(C(F)(F)F)cc3O)c3ccncc23)C[C@H](C)O1` [Example 4, 2-(4-((cis)-2,6-dimethylmorpholino)pyrido[3,4-d]pyridazin-1-yl)-5-(trifluoromethyl)phenol]: 82 nM.
The same measure for `CN1CC[C@H]2CCN(c3nnc(-c4ccc(C(F)(F)F)cc4O)c4cccnc34)[C@H]2C1` [Example 23, 2-(8-((3aS,7aR)-6-methyloctahydro-1H-pyrrolo[2,3-c]pyridin-1-yl)pyrido[2,3-d]pyridazin-5-yl)-5-(trifluoromethyl)phenol]: 5 nM.
Next, `Oc1cc(C(F)(F)F)ccc1-c1nnc(N2CCC3(CCOC3)CC2)c2ncccc12` [Example 31, 2-(8-(2-oxa-8-azaspiro[4.5]decan-8-yl)pyrido[2,3-d]pyridazin-5-yl)-5-(trifluoromethyl)phenol]: 915 nM.
Take `CC1CN(c2nnc(-c3ccc(C(F)(F)F)cc3O)c3cccnc23)CC(CO)O1` (single isomer, unassigned) [Example 51, 2-(8-((2R,6R or 2S,6S)-2-(hydroxymethyl)-6-methylmorpholino)pyrido[2,3-d]pyridazin-5-yl)-5-(trifluoromethyl) phenol]: the EC50 was 65 nM.
The same measure for `Oc1cc(C(F)(F)F)ccc1-c1nnc(N2CC(O)C3(CC3)C2)c2ncccc12` (racemic) [Example 44, (R and S)-5-(5-(2-hydroxy-4-(trifluoromethyl)phenyl)pyrido [2,3-d]pyridazin-8-yl)-5-azaspiro[2.4]heptan-7-ol]: 591 nM.

Values taken from patent US20240124451A1, “PHTHALAZINE DERIVATIVES USEFUL AS INHIBITORS OF NOD-LIKE RECEPTOR PROTEIN 3” (Merck Sharp & Dohme LLC, priority 2022, published 2024).
